Key:
[1] = molecular target: T1, Akt1 (Homo sapiens, UniProt P31749); assay: Akt activation assay (PDK1-mediated activation, LANCE Ultra crosstide TR-FRET), Akt1; format: biochemical; details: read-out: Biological Assay 1 IC50 (nM) Akt1
T1 construct: unspecified tag, removed (detagged) (cleaved yes); purchased SignalChem and Proteros (Akt1); Merck Millipore (PDK1) 14-452 (PDK1); none given for Akt1
How it was run: (§1)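 Unactivated Akt (5 nM Akt1, 15 or 5 nM Akt2, 3 or 5 nM Akt3, by supplier) preincubated with compound, then activated by 5 nM PDK1 on DOPS/DOPC/PtdIns(3,4,5)P3 vesicles with 100 μM ATP and 100 nM Ulight-crosstide, pH 7.5, 30 min. Eu-anti-phospho-crosstide TR-FRET (665/615 nm); IC50 by 4-parameter fit.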

[2] = molecular target: T2, Akt2 (Homo sapiens, UniProt P31751); assay: Akt activation assay (PDK1-mediated activation, LANCE Ultra crosstide TR-FRET), Akt2; format: biochemical; details: read-out: Biological Assay 1 IC50 (nM) Akt2
T2 construct: unspecified tag, removed (detagged) (cleaved yes); purchased SignalChem and Proteros (Akt2); Merck Millipore (PDK1) 14-452 (PDK1); none given for Akt2
How it was run: as §1

[3] = molecular target: T3, Akt3 (Homo sapiens, UniProt Q9Y243); assay: Akt activation assay (PDK1-mediated activation, LANCE Ultra crosstide TR-FRET), Akt3; format: biochemical; details: read-out: Biological Assay 1 IC50 (nM) Akt3
T3 construct: unspecified tag, removed (detagged) (cleaved yes); purchased SignalChem and Proteros (Akt3); Merck Millipore (PDK1) 14-452 (PDK1); none given for Akt3
How it was run: as §1

[4] = molecular target: T4, p-Akt1 in LNCaP cells (Homo sapiens, UniProt P31749); assay: Phospho-Akt cellular SureFire assay, p-Akt1 in LNCaP cells; format: cell-based; details: read-out: Biological Assay 2 IC50 (nM) Akt1 LNCaP
T4 construct: SureFire assays to detect cellular p-Akt1, p-Akt2 and p-Akt3 levels in WM115 cells (Akt2/3) and LNCaP cells (Akt1); endogenous in cells; host or cells: LNCaP (ECACC 89110211)
How it was run: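 LNCaP cells, 5×10^4/well, seeded overnight, switched to 0.1% FBS medium without insulin stimulation, then compound for 15 min at 37 °C (0.3% DMSO). Lysate p-Akt1 (pThr308) by AlphaScreen SureFire, two 2 h incubations at room temperature; IC50 by 4-parameter fit.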

[5] = molecular target: T5, p-Akt2 in WM115 cells (Homo sapiens, UniProt P31751); assay: Phospho-Akt cellular SureFire assay, p-Akt2 in WM115 cells; format: cell-based; details: insulin stimulated, read-out: Biological Assay 2 IC50 (nM) Akt2 WM115
T5 construct: SureFire assays to detect cellular p-Akt1, p-Akt2 and p-Akt3 levels in WM115 cells (Akt2/3) and LNCaP cells (Akt1); endogenous in cells; host or cells: WM115 (ECACC 91061232), insulin-stimulated
How it was run: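 WM115 cells in 0.1% FBS medium stimulated 10 min with 100 nM insulin, then exposed to compound for 15 min at 37° C (0.3% DMSO final). Lysates assayed by AlphaScreen with anti-(pThr308)Akt and isoform-specific total Akt2 antibodies; IC50 from 4-parameter fit.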

[6] = molecular target: T6, p-Akt3 in WM115 cells (Homo sapiens, UniProt Q9Y243); assay: Phospho-Akt cellular SureFire assay, p-Akt3 in WM115 cells; format: cell-based; details: insulin stimulated, read-out: Biological Assay 2 IC50 (nM) Akt3 WM115
T6 construct: SureFire assays to detect cellular p-Akt1, p-Akt2 and p-Akt3 levels in WM115 cells (Akt2/3) and LNCaP cells (Akt1); endogenous in cells; host or cells: WM115 (ECACC 91061232), insulin-stimulated
How it was run: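 WM115 cells were serum-reduced to 0.1% FBS, stimulated with 100 nM insulin for 10 min, then exposed to compound (0.3% DMSO) for 15 min at 37 °C. Lysates were assayed for Thr308-phosphorylated Akt3 by AlphaScreen SureFire using an isoform-specific total Akt3 capture antibody. IC50 was derived from a 4-parameter fit.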

T1 sequence (P31749 whole entry): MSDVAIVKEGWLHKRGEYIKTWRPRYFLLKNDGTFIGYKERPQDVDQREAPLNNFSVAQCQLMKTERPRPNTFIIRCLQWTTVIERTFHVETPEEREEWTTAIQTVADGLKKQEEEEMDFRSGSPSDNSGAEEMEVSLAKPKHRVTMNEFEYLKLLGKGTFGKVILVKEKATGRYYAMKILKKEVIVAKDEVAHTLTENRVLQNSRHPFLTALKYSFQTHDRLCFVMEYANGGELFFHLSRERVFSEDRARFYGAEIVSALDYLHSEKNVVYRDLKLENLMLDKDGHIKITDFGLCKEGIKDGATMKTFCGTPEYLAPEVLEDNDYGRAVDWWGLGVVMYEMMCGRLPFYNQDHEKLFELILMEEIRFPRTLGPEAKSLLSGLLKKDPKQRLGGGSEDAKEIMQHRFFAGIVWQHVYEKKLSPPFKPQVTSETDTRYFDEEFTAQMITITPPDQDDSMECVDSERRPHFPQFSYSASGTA
T4 sequence (P31749 whole entry): as above
T5 sequence (P31751 whole entry): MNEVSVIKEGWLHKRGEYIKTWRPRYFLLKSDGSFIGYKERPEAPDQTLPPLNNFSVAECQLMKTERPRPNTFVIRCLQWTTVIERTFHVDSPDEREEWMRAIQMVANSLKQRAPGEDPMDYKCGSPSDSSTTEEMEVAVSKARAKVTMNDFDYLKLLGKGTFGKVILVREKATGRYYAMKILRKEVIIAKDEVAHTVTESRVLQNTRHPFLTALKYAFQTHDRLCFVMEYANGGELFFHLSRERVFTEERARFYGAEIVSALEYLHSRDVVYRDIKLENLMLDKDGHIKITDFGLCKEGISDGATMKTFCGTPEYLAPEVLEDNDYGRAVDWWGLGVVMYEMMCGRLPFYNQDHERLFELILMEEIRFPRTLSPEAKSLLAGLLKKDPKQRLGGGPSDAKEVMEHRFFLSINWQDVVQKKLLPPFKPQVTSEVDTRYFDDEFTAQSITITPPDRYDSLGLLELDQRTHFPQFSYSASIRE
T2 sequence (P31751 whole entry): as above
T3 sequence (Q9Y243 whole entry): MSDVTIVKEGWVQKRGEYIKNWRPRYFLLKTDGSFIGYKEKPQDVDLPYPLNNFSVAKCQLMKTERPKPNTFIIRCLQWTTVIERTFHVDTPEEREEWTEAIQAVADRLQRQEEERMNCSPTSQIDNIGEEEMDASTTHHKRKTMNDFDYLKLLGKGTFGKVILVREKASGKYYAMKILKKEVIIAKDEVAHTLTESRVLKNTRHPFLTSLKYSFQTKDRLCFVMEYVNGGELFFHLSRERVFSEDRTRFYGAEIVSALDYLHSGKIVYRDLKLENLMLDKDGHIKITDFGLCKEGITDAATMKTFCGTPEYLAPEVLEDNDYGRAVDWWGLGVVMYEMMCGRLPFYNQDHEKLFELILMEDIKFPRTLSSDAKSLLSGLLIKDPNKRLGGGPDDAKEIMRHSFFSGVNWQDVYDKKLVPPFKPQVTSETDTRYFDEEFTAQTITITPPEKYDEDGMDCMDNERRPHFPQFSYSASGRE
T6 sequence (Q9Y243 whole entry): as above

C[C@]1(O)C[C@@](N)(c2ccc(-c3nnc(NC(=O)C[C@H]4CC[C@H](N5CCOC5=O)CC4)cc3-c3ccccc3)cc2)C1 [Example 58, N-(6-(4-(trans-1-amino-3-hydroxy-3-methylcyclobutyl)phenyl)-5-phenylpyridazin-3-yl)-2-(trans-4-(2-oxooxazolidin-3-yl)cyclohexyl)acetamide]
IC50 [1]: 1300 nM | IC50 [2]: 98 nM | IC50 [3]: 3 nM | IC50 [4]: 4000 nM | IC50 [5]: 750 nM | IC50 [6]: 8 nM

COC(=O)N(C)[C@H]1CC[C@H](CC(=O)Nc2cc(-c3ccccc3)c(-c3ccc([C@]4(N)C[C@](C)(O)C4)cc3)nn2)CC1 [Example 59, Methyl (trans-4-(2-((6-(4-(trans-1-amino-3-hydroxy-3-methylcyclobutyl)phenyl)-5-phenylpyridazin-3-yl)amino)-2-oxoethyl)cyclohexyl)(methyl)carbamate]
IC50 [1]: 1400 nM | IC50 [2]: 50 nM | IC50 [3]: 4 nM | IC50 [4]: 1600 nM | IC50 [5]: 380 nM | IC50 [6]: 24 nM

COC(=O)N(C)[C@H]1CC[C@H](CC(=O)Nc2cc(-c3ccccc3)c(-c3ccc(C4(N)CC(F)(F)C4)cc3)nn2)CC1 [Example 60, Methyl (trans-4-(2-((6-(4-(1-amino-3,3-difluorocyclobutyl)phenyl)-5-phenylpyridazin-3-yl)amino)-2-oxoethyl)cyclohexyl)(methyl)carbamate]
IC50 [1]: > 30000 nM | IC50 [2]: 710 nM | IC50 [3]: 50 nM | IC50 [4]: > 30000 nM | IC50 [5]: 8800 nM | IC50 [6]: 290 nM

NC1(c2ccc(-c3nnc(NC(=O)C[C@H]4CC[C@H](N5CCOC5=O)CC4)cc3-c3ccccc3)cc2)CC(F)(F)C1 [Example 61, N-(6-(4-(1-amino-3,3-difluorocyclobutyl)phenyl)-5-phenylpyridazin-3-yl)-2-(trans-4-(2-oxooxazolidin-3-yl)cyclohexyl)acetamide]
IC50 [1]: > 22800 nM | IC50 [2]: 200 nM | IC50 [3]: 17 nM | IC50 [4]: > 30000 nM | IC50 [5]: > 10500 nM | IC50 [6]: 66 nM

CC(=O)N(C)[C@H]1CC[C@H](CC(=O)Nc2cc(-c3ccccc3)c(-c3ccc(C(C)(C)N)cc3)cn2)CC1 [Example 63, N-(5-(4-(2-aminopropan-2-yl)phenyl)-4-phenylpyridin-2-yl)-2-(trans-4-(N-methylacetamido)cyclohexyl)acetamide]
IC50 [1]: > 30000 nM | IC50 [2]: > 30000 nM | IC50 [3]: 300 nM | IC50 [4]: > 30000 nM | IC50 [5]: > 28000 nM | IC50 [6]: 360 nM

CC(C)(N)c1ccc(-c2cnc(NC(=O)C[C@H]3CC[C@H](N4CCOC4=O)CC3)cc2-c2ccccc2)cc1 [Example 64, N-(5-(4-(2-aminopropan-2-yl)phenyl)-4-phenylpyridin-2-yl)-2-(trans-4-(2-oxooxazolidin-3-yl)cyclohexyl)acetamide]
IC50 [1]: > 30000 nM | IC50 [2]: 2800 nM | IC50 [3]: 180 nM | IC50 [4]: > 30000 nM | IC50 [5]: 6600 nM | IC50 [6]: 210 nM

CC(C)(N)c1ccc(-c2nnc(NC(=O)C[C@H]3CC[C@H](N4CCOC4=O)CC3)cc2-c2ccccc2)cc1 [Example 65, N-(6-(4-(2-aminopropan-2-yl)phenyl)-5-phenylpyridazin-3-yl)-2-(trans-4-(2-oxooxazolidin-3-yl)cyclohexyl)acetamide]
IC50 [1]: > 30000 nM | IC50 [2]: 4100 nM | IC50 [3]: 61 nM | IC50 [4]: > 30000 nM | IC50 [5]: 6500 nM | IC50 [6]: 190 nM

NC1(c2ccc(-c3nnc(NC(=O)C[C@H]4CC[C@H](N5CCOC5=O)CC4)cc3-c3ccccc3)cc2)CCC1 [Example 66, N-(6-(4-(1-aminocyclobutyl)phenyl)-5-phenylpyridazin-3-yl)-2-(trans-4-(2-oxooxazolidin-3-yl)cyclohexyl)acetamide]
IC50 [1]: 7200 nM | IC50 [2]: 150 nM | IC50 [3]: 5 nM | IC50 [4]: 9800 nM | IC50 [5]: 940 nM | IC50 [6]: 48 nM

COC(=O)N(C)[C@H]1CC[C@H](CC(=O)Nc2cc(-c3ccccc3)c(-c3ccc([C@]4(N)C[C@](C)(O)C4)cc3)cn2)CC1 [Example 67, Methyl (trans-4-(2-((5-(4-(trans-1-amino-3-hydroxy-3-methylcyclobutyl)phenyl)-4-phenylpyridin-2-yl)amino)-2-oxoethyl)cyclohexyl)(methyl)carbamate]
IC50 [1]: > 6500 nM | IC50 [2]: 180 nM | IC50 [3]: 8 nM | IC50 [4]: > 9300 nM | IC50 [5]: 1500 nM | IC50 [6]: 37 nM

CC(C)(N)c1ccc(-c2nnc(NC(=O)C[C@H]3CC[C@H](N4CCOC4=O)CC3)nc2-c2ccccc2)cc1 [Example 69, N-(6-(4-(2-aminopropan-2-yl)phenyl)-5-phenyl-1,2,4-triazin-3-yl)-2-(trans-4-(2-oxooxazolidin-3-yl)cyclohexyl)acetamide]
IC50 [1]: > 30000 nM | IC50 [2]: > 30000 nM | IC50 [3]: 1800 nM | IC50 [4]: > 30000 nM | IC50 [5]: > 30000 nM | IC50 [6]: 480 nM

NC1(c2ccc(-c3cnc(NC(=O)C[C@H]4CC[C@H](N5CCOC5=O)CC4)cc3-c3ccsc3)cc2)CCC1 [Example 70, N-(5-(4-(1-aminocyclobutyl)phenyl)-4-(thiophen-3-yl)pyridin-2-yl)-2-(trans-4-(2-oxooxazolidin-3-yl)cyclohexyl)acetamide]
IC50 [1]: > 30000 nM | IC50 [2]: 830 nM | IC50 [3]: 42 nM | IC50 [4]: > 30000 nM | IC50 [5]: 910 nM | IC50 [6]: 39 nM

CN(C(=O)C1CC1)[C@H]1CC[C@H](CC(=O)Nc2cc(-c3ccccc3)c(-c3ccc([C@]4(N)C[C@H](F)C4)cc3)nn2)CC1 [Example 71, N-(trans-4-(2-((6-(4-(trans-1-amino-3-fluorocyclobutyl)phenyl)-5-phenylpyridazin-3-yl)amino)-2-oxoethyl)cyclohexyl)-N-methylcyclopropanecarboxamide]
IC50 [1]: 10000 nM | IC50 [2]: 350 nM | IC50 [3]: 16 nM | IC50 [4]: 9100 nM | IC50 [5]: 1300 nM | IC50 [6]: 44 nM

CC(=O)N(C)[C@H]1CC[C@H](CC(=O)Nc2cc(-c3ccccc3)c(-c3ccc(C4(N)CC4)cc3)nn2)CC1 [Example 72, N-(6-(4-(1-aminocyclopropyl)phenyl)-5-phenylpyridazin-3-yl)-2-(trans-4-(N-methylacetamido)cyclohexyl)acetamide]
IC50 [1]: > 22000 nM | IC50 [2]: 460 nM | IC50 [3]: 10 nM | IC50 [4]: > 7500 nM | IC50 [5]: 1400 nM | IC50 [6]: 35 nM

CC(=O)N(C)[C@H]1CC[C@H](CC(=O)Nc2cc(-c3ccccc3)c(-c3ccc(C4(N)CC(F)(F)C4)cc3)nn2)CC1 [Example 73, N-(6-(4-(1-amino-3,3-difluorocyclobutyl)phenyl)-5-phenylpyridazin-3-yl)-2-(trans-4-(N-methylacetamido)cyclohexyl)acetamide]
IC50 [1]: > 30000 nM | IC50 [2]: 540 nM | IC50 [3]: 22 nM | IC50 [4]: > 17000 nM | IC50 [5]: 12000 nM | IC50 [6]: 66 nM

N[C@]1(c2ccc(-c3nnc(NC(=O)C[C@H]4CC[C@H](N5CCCC5=O)CC4)cc3-c3ccccc3)cc2)C[C@@H](F)C1 [Example 74, N-(6-(4-(trans-1-amino-3-fluorocyclobutyl)phenyl)-5-phenylpyridazin-3-yl)-2-(trans-4-(2-oxopyrrolidin-1-yl)cyclohexyl)acetamide]
IC50 [1]: > 30000 nM | IC50 [2]: 190 nM | IC50 [3]: 4 nM | IC50 [4]: > 30000 nM | IC50 [5]: 1700 nM | IC50 [6]: 40 nM

CC(=O)N(C)[C@H]1CC[C@H](CC(=O)Nc2cc(-c3ccsc3)c(-c3ccc([C@]4(N)C[C@H](F)C4)cc3)nn2)CC1 [Example 75, N-(6-(4-(trans-1-amino-3-fluorocyclobutyl)phenyl)-5-(thiophen-3-yl)pyridazin-3-yl)-2-(trans-4-(N-methylacetamido)cyclohexyl)acetamide]
IC50 [1]: > 16000 nM | IC50 [2]: 580 nM | IC50 [3]: 18 nM | IC50 [4]: > 30000 nM | IC50 [5]: 3200 nM | IC50 [6]: 46 nM

From US10336702B2, “Pharmaceutically active compounds” (BERGENBIO ASA, priority 2015, dated 2019)
